Patent publication US7612084B2, “Amine derivatives for the treatment of asthma and COPD” (Pfizer Inc, priority 2006, dated 2009)
Where a name gives a salt, the structure may show the parent alone.

What was measured:
[1] = biological target: human adrenergic B2 receptor (Homo sapiens, UniProt P07550); experiment: Whole cell luciferase reporter assay in CHO cells expressing the hB2 receptor (agonist potency); format: cell-based; conditions: 4 h incubation, read-out: EC50 - beta2
Procedure: Functional Assessment of Agonist Potency and Efficacy Using a Whole Cell Luciferase Reporter Assay in CHO Cells Expressing the hB2 Receptor.
CHO (Chinese Hamster Ovary) cells recombinantly expressing the human adrenergic B2 receptor and transfected with a luciferase enzyme reporter gene were maintained in growth media composed of F12:DMEM (Sigma D6421) containing 10% Foetal Bovine Serum (FBS: Sigma F03921) 10 μg/ml puromycin (Sigma N277698), 0.5 mg/ml Geneticin G418 (Sigma G7034) and 2 mM L-glutamine (Sigma G7513). The cells were kept in sterile conditions at 37° C., in an atmosphere containing 5% CO2.
hB2 Luciferase Assay Protocol
Cells were harvested for assay when they reached 80-90% confluency using enzyme free cell Dissociation Solution (Life technologies 13151-014) incubated with the cells for 5 min at 37° C. in an atmosphere containing 5% CO2. Detached cells were collected in warmed growth media (composition described above), and re-suspended in assay media (F12:DMEM (Sigma D6421) containing 1% Foetal Bovine Serum (FBS: Sigma F03921), 10 μg/ml puromycin (Sigma N277698), 0.5 mg/ml Geneticin G418 (Sigma G7034) and 2 mM L-glutamine (Sigma G7513))to give a viable cell concentration of 1×10^6 cells/ml. 10 ul of this suspension was added to each well of a tissue culture treated low volume 384 well plate (Greiner788073) and the plate incubated in an atmosphere containing 5% CO2 at 37° C. for 2 h. Concentration ranges of test compounds were prepared in phosphate Buffered Saline containing 0.05% pluronic-F127 (Sigma P2443) and 2.5% DMSO. 2 μl of each test concentration were added to the appropriate 384 plate well and returned to the incubator for a further 4 h. At the end of the incubation period 4 μl of Steady-Glo reagent (Steady-Glo Luciferase assay system (Promega E2520) was added to each well and the plate read immediately in a Leadseeker Plate reader (Amersham Bioscience) using a 660 nm filter. Concentration effect curves were plotted and EC50 values generated using a 4-parameter sigmoid fit using an in-house data analysis programme. Isoprenaline was run in every assay as a reference standard.

[2] = biological target: human muscarinic M3 receptor (Homo sapiens, UniProt P20309); experiment: Whole cell β-lactamase reporter assay in CHO cells expressing the hM3 receptor (antagonist activity); format: cell-based; conditions: 80 nM carbamyl choline, IC50 converted to Ki by Cheng-Prusoff
Procedure: Functional Assessment of Antagonist Activity Using a Whole Cell β-Lactamase Reporter Assay in CHO Cells Expressing the hM3 Receptor.
CHO (Chinese Hamster Ovary) cells recombinantly expressing the human muscarinic M3 receptor were transfected with the NFAT_β-Lac_Zeo plasmid. Cells were grown in DMEM with Glutamax-1, supplemented with 25 mM HEPES(Life Technologies 32430-027), containing 10% FCS (Foetal Calf Serum; Sigma F-7524), […] Sodium pyruvate (Sigma S-8636), NEAA (non-Essential Amino Acids; Invitrogen 11140-035) and […] Zeocin (Invitrogen R250-01).
Cells were harvested for assay when they reached 80-90% confluency using enzyme free cell Dissociation Solution (Life technologies 13151-014) incubated with the cells for 5 min at 37° C. in an atmosphere containing 5% CO2. Detached cells were collected in warmed growth media and centrifuged at 200 rpm for 10 min, washed in PBS (Phosphate Buffered Saline; Life Technologies 14190-094) and centrifuged again as just described. The cells were re-suspended at 2×10^5 cells/ml in growth medium (composition as described above). 20 μl of this cell suspension was added to each well of a 384 well black clear bottomed plate (Greiner Bio One 781091-PFI). The assay buffer used was PBS supplemented with 0.05% Pluronic F-127 (Sigma 9003-11-6) and 2.5% DMSO. Muscarinic M3 receptor signalling was stimulated using 80 nM carbamyl choline (Aldrich N240-9) incubated with the cells for 4 h at 37° C./5% CO2 and monitored at the end of the incubation period using a Tecan SpectraFluor+plate reader (λ−excitation 405 nm, emission 450 nm and 503 nm). Compounds under test were added to the assay at the beginning of the 4 h incubation period and compound activity measured as the concentration dependent inhibition of the carbamyl choline induced signal. Inhibition curves were plotted and IC50 values generated using a 4-parameter sigmoid fit and converted to Ki values using the Cheng-Prusoff correction and the KD value for carbamyl choline in the assay.

human adrenergic B2 receptor, sequence (P07550 whole entry): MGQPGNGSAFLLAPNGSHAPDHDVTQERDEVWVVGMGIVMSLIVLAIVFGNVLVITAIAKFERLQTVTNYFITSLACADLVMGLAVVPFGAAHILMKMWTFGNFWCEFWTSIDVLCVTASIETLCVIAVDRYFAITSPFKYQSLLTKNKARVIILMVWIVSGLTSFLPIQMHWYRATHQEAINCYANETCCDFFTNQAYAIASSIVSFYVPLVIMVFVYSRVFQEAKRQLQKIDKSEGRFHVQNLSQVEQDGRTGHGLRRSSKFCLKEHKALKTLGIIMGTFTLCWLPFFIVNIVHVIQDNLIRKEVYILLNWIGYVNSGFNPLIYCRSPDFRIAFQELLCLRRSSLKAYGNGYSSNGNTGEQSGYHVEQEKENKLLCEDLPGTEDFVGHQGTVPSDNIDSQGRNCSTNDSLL
human muscarinic M3 receptor, sequence (P20309 whole entry): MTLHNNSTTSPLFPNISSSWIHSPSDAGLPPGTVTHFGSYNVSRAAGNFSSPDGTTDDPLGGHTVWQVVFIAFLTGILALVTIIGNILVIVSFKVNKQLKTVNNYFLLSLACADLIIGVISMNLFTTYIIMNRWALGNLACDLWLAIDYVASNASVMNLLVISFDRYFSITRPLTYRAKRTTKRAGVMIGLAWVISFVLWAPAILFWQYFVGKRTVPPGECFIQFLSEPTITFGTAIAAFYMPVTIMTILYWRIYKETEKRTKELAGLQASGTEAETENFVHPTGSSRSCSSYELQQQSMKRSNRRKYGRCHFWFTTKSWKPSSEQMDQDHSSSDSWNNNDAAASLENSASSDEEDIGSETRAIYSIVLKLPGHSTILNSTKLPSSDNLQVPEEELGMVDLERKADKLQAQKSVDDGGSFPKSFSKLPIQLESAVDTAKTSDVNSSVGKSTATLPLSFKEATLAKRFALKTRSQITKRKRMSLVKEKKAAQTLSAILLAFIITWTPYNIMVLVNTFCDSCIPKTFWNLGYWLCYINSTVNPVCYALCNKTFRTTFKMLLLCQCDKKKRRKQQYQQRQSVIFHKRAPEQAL

Row | SMILES | EC50 [1] [nM] | Ki [2] [nM]
1 | CC(C)N(CC[C@H](c1ccccc1)c1cc(CCOc2ccc(CCNC[C@H](O)c3ccc(O)c(NS(C)(=O)=O)c3)cc2)ccc1O)C(C)C [Example 19, N-{5-[(1R)-2-({2-[4-(2-{3-[(1R)-3-(diisopropylamino)-1-phenylpropyl]-4-hydroxyphenyl}ethoxy)phenyl]ethyl}amino)-1-hydroxyethyl]-2-hydroxyphenyl}methanesulfonamide succinate salt] | 0.2 | 0.3
2 | CC(C)N(CC[C@H](c1ccccc1)c1cc(CCOc2ccc(CC(C)(C)NC[C@H](O)c3ccc(O)c4[nH]c(=O)ccc34)cc2)ccc1O)C(C)C [Example 20, 5-[(1R)-2-({2-[4-(2-{3-[(1R)-3-(diisopropylamino)-1-phenylpropyl]-4-hydroxyphenyl}ethoxy)phenyl]-11-dimethylethyl}amino)-1-hydroxyethyl]-8-hydroxyquinolin-2(1H)-one] | 0.028 | 0.39
